Legend:
Stromelysin-1 = Stromelysin-1 (Homo sapiens, UniProt P08254); assay: In vitro inhibition activity of human recombinant stromelysin (Matrix metalloprotease-3)
Matrilysin = target: T1, Matrilysin (Homo sapiens, UniProt P09237); assay: In vitro inhibition of matrilysin (Matrix metalloprotease-7, MMP-7)
T1 sequence (P09237 whole entry): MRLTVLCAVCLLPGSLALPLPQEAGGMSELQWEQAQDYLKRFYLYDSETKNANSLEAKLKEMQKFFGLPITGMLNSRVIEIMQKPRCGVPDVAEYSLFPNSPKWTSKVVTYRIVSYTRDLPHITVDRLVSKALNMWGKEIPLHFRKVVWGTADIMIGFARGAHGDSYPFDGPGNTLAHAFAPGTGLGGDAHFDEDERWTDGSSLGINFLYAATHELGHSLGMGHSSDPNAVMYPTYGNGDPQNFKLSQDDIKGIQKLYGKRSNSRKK

Interstitial collagenase = target: T2, Interstitial collagenase (Homo sapiens, UniProt P03956); assay: In vitro inhibition of human recombinant collagenase-1 (Matrix metalloprotease-1, MMP-1)
T2 sequence (P03956 whole entry): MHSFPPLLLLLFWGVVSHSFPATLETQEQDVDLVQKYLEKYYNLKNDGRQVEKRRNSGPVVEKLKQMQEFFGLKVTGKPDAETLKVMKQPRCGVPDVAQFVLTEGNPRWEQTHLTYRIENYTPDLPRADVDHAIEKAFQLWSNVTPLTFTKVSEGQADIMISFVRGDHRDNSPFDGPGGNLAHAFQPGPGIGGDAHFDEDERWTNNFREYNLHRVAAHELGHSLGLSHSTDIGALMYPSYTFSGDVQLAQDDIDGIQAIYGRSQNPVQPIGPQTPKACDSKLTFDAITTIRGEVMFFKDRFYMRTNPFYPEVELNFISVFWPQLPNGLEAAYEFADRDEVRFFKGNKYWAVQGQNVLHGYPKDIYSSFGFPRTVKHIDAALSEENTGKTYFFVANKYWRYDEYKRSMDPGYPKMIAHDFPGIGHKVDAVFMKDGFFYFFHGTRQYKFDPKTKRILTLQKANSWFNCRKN

Collagenase 3 = Collagenase 3 (Homo sapiens, UniProt P45452); assay: In vitro inhibition of human recombinant collagenase-3 (Matrix metalloprotease-13)
[1] = target: 72 kDa type IV collagenase (Homo sapiens, UniProt P08253)
Description: In vitro inhibitory activity against gelatinase-A (matrix metalloprotease-2).

Rattus norvegicus [2] = organism: Rattus norvegicus; assay: In vitro percent permeability into rat ileum; Range is 10-19; format: ADME; conditions: in vivo
Rattus norvegicus [3] = organism: Rattus norvegicus; assay: In vitro percent permeability into rat ileum; Range is 28-36; format: ADME; conditions: in vivo
Rattus norvegicus [4] = organism: Rattus norvegicus; assay: In vitro percent permeability into rat ileum; Range is 2-5; format: ADME; conditions: in vivo
Rattus norvegicus [5] = organism: Rattus norvegicus; assay: In vitro percent permeability into rat ileum; nd indicates not detected; format: ADME; conditions: in vivo
Rattus norvegicus [6] = organism: Rattus norvegicus; assay: In vitro percent permeability into rat ileum; Range is 12-15; format: ADME; conditions: in vivo
Rattus norvegicus [7] = organism: Rattus norvegicus; assay: In vitro percent permeability into rat ileum; Range is 13-19; format: ADME; conditions: in vivo
[8] = In vitro percent permeability into rat ileum; Range is 23-42; format: ADME, tissue-based
Rattus norvegicus [9] = organism: Rattus norvegicus; assay: In vitro percent permeability into rat ileum; insol indicates not soluble in aqueous buffer; format: ADME
Rattus norvegicus [10] = organism: Rattus norvegicus; assay: In vitro percent permeability into rat ileum; Range is 46-66; format: ADME; conditions: in vivo
Rattus norvegicus [11] = organism: Rattus norvegicus; assay: In vitro percent permeability into rat ileum; format: ADME; conditions: in vivo
Rattus norvegicus [12] = organism: Rattus norvegicus; assay: In vitro percent permeability into rat ileum; Range is 29-35; format: ADME; conditions: in vivo
Rattus norvegicus [13] = organism: Rattus norvegicus; assay: In vitro percent permeability into rat ileum; nt indicates not detected; format: ADME; conditions: in vivo
Rattus norvegicus [14] = organism: Rattus norvegicus; assay: In vitro percent permeability into rat ileum; Range is 50-68; format: ADME; conditions: in vivo
Rattus norvegicus [15] = organism: Rattus norvegicus; assay: In vitro percent permeability into rat ileum; Range is 78-81; format: ADME; conditions: in vivo
Rattus norvegicus [16] = organism: Rattus norvegicus; assay: In vitro percent permeability into rat ileum; Range is 10-17; format: ADME; conditions: in vivo
Rattus norvegicus [17] = organism: Rattus norvegicus; assay: In vitro percent permeability into rat ileum; Range is 14-17; format: ADME; conditions: in vivo
Rattus norvegicus [18] = organism: Rattus norvegicus; assay: In vitro percent permeability into rat ileum; Range is 15-18; format: ADME; conditions: in vivo

Stromelysin-1, sequence (P08254 whole entry): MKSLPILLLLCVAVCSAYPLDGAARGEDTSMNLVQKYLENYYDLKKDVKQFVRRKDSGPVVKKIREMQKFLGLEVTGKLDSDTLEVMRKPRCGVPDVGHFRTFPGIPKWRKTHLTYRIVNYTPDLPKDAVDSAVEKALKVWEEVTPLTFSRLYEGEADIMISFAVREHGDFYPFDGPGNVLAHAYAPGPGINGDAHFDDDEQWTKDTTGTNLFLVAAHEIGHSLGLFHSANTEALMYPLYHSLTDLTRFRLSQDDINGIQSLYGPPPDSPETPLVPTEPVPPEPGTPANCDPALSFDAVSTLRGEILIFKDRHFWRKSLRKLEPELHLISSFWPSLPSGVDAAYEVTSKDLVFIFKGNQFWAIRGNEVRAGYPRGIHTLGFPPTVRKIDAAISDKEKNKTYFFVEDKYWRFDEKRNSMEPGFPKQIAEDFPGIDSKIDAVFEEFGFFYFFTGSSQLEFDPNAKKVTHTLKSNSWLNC
72 kDa type IV collagenase, sequence (P08253 whole entry): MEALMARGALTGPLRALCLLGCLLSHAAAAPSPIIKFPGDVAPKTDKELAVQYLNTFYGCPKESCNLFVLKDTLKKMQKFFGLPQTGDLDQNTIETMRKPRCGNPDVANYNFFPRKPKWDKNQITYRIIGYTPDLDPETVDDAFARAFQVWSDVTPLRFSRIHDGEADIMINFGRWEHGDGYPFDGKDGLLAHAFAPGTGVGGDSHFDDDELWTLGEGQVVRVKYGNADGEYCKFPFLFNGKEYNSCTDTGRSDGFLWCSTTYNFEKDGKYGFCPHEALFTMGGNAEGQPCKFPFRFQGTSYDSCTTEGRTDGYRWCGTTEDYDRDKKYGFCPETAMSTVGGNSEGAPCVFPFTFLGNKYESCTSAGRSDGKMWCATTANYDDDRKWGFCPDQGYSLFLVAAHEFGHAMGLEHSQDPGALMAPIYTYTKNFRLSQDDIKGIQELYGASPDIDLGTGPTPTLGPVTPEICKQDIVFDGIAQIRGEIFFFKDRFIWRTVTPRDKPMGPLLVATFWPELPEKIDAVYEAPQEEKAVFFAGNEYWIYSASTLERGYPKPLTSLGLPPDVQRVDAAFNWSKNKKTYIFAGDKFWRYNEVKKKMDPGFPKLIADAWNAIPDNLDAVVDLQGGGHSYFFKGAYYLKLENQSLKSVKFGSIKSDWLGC

| Compound | IC50 (Stromelysin-1) [nM] | IC50 (Matrilysin) [nM] | IC50 (Interstitial collagenase) [nM] | IC50 (Collagenase 3) [nM] | IC50 [1] [nM] | also measured |
| --- | --- | --- | --- | --- | --- | --- |
| C=C1C[C@H](C(=O)NO)N(S(=O)(=O)c2ccc(Oc3ccccc3)cc2)C1 | 14 | 53 | 15 | < 0.4 | 0.4 |  |
| C=C1C[C@H](C(=O)NO)N(S(=O)(=O)c2ccc(OCCCC)cc2)C1 | 15 | 1080 | 329 | 0.7 | 0.8 |  |
| CONC1C[C@H](C(=O)NO)N(S(=O)(=O)c2ccc(Oc3ccccc3)cc2)C1 (some centres undefined) | 6 | 1790 | 86 | < 0.4 | < 0.4 |  |
| CCCCOc1ccc(S(=O)(=O)N2C/C(=N\N3CCNCC3)C[C@@H]2C(=O)NO)cc1 | 3 | 343 | 184 | < 1 |  | Absorption (Rattus norvegicus [2]): 19% |
| CCCCOc1ccc(S(=O)(=O)N2C/C(=N\O)C[C@@H]2C(=O)NO)cc1 | 5 | 307 | 119 | 0.3 | 0.2 | Absorption (Rattus norvegicus [4]): 5% |
| O=C(NO)[C@H]1C/C(=N/Oc2ccccc2)CN1S(=O)(=O)c1ccc(Oc2ccncc2)cc1 | 5 | 785 | 32 | 0.4 |  | Absorption (Rattus norvegicus [5]): None detected |
| CC(C)(C)O/N=C1/C[C@H](C(=O)NO)N(S(=O)(=O)c2ccc(Oc3ccc(F)cc3)cc2)C1 | < 1 | 1030 | 24 | 0.2 | < 0.4 | Absorption (Rattus norvegicus [9]): Insoluble |
| CCCCOc1ccc(S(=O)(=O)N2C/C(=N\OCc3ccccc3)C[C@@H]2C(=O)NO)cc1 | 17 | 490 | 127 | 0.1 | < 0.4 |  |
| CCCCOc1ccc(S(=O)(=O)N2C/C(=N\N3CCOCC3)C[C@@H]2C(=O)NO)cc1 | 2 | 196 | 293 | < 1 |  | Absorption (Rattus norvegicus [11]): 1% |
| CO/N=C1/C[C@H](C(=O)NO)N(S(=O)(=O)c2ccc(Oc3ccncc3)cc2)C1 | 5 | 922 |  | < 0.2 | 0.3 | Absorption (Rattus norvegicus [14]): 68% |
| CCCCOc1ccc(S(=O)(=O)N2C/C(=N\OCC(C)C)C[C@@H]2C(=O)NO)cc1 | 12 | 420 | 75 | < 0.1 | < 0.4 |  |
| C=C1C[C@H](C(=O)NO)N(S(=O)(=O)c2ccc(OCCOC)cc2)C1 | 69 | > 9990 | 1550 | 11 | 9 |  |
| COCCOc1ccc(S(=O)(=O)N2C/C(=N\OC)C[C@@H]2C(=O)NO)cc1 | 15 | 612 | 109 | < 0.4 | 0.5 |  |
| C=C1C[C@H](C(=O)NO)N(S(=O)(=O)c2ccc(OCCC)cc2)C1 | 16 | 2550 | 155 | 1 | 2 |  |
| CCCCOc1ccc(S(=O)(=O)N2C/C(=N\OCC)C[C@@H]2C(=O)NO)cc1 | 2 | 39 | 39 | 0.5 | < 0.4 | Absorption (Rattus norvegicus [16]): 17% |
| CC(C)(C)O/N=C1/C[C@H](C(=O)NO)N(S(=O)(=O)c2ccc(Oc3ccncc3)cc2)C1 | 5 | 785 | 26 | < 0.4 | < 0.4 |  |
| CO/N=C1/C[C@H](C(=O)NO)N(S(=O)(=O)c2ccc(Oc3ccccc3)cc2)C1 | 2 | 60 | 3 | < 0.4 | < 0.4 | Absorption (Rattus norvegicus [18]): 18% |
| CO/N=C1/C[C@H](C(=O)NO)N(S(=O)(=O)c2ccc(Oc3ccc(F)cc3)cc2)C1 | < 1 | < 24 | 3 | 0.8 | < 0.4 |  |

More lines, main results first:

| IC50 (Stromelysin-1) [nM] | IC50 (Matrilysin) [nM] | IC50 (Interstitial collagenase) [nM] | IC50 (Collagenase 3) [nM] | IC50 [1] [nM] | Compound | also measured |
| --- | --- | --- | --- | --- | --- | --- |
| 1 | 89 | 26 | 0.3 | < 1 | CCCCOc1ccc(S(=O)(=O)N2C/C(=N\OC)C[C@@H]2C(=O)NO)cc1 | Absorption (Rattus norvegicus [3]): 36% |
| 222 | 6720 |  | 8 | 11 | COCCOc1ccc(S(=O)(=O)N2CC(NOC)C[C@@H]2C(=O)NO)cc1 (some centres undefined) |  |
| 19 | 3390 | 212 | 3 | 5 | CONC1C[C@H](C(=O)NO)N(S(=O)(=O)c2ccc(OC)cc2)C1 (some centres undefined) | Absorption (Rattus norvegicus [6]): 15% |
| 20 | 5230 | 255 | 3 | 4 | COc1ccc(S(=O)(=O)N2CC(NOC(C)(C)C)C[C@@H]2C(=O)NO)cc1 (some centres undefined) |  |
| 9 | 263 | 20 | < 0.5 | 0.7 | COc1ccc(S(=O)(=O)N2C/C(=N\OC(C)(C)C)C[C@@H]2C(=O)NO)cc1 | Absorption (Rattus norvegicus [7]): 19% |
| 16 | 1060 | 22 | 0.7 | 0.3 | CCOc1ccc(S(=O)(=O)N2C/C(=N\OC)C[C@@H]2C(=O)NO)cc1 | Absorption [8]: 42% |
|  | 12300 | 90 | 4 |  | C=C1C[C@H](C(=O)NO)N(S(=O)(=O)c2ccc(OC)cc2)C1 | Absorption (Rattus norvegicus [10]): 66% |
| 5 |  | 17 | 0.2 | 0.2 | COc1ccc(S(=O)(=O)N2C/C(=N\O)C[C@@H]2C(=O)NO)cc1 | Absorption (Rattus norvegicus [12]): 35% |
| 11 | 294 | 74 | 0.4 | 0.5 | CCCCOc1ccc(S(=O)(=O)N2C/C(=N\OC(C)(C)C)C[C@@H]2C(=O)NO)cc1 | Absorption (Rattus norvegicus [13]): None detected |
| 3 | 82 | 10 | < 0.5 | < 1 | CO/N=C1/C[C@H](C(=O)NO)N(S(=O)(=O)c2ccc(OC)cc2)C1 | Absorption (Rattus norvegicus [15]): 81% |
| 21 | 2080 | 790 | 2 | 1 | CCCCOc1ccc(S(=O)(=O)N2CC(NOC)C[C@@H]2C(=O)NO)cc1 (some centres undefined) | Absorption (Rattus norvegicus [17]): 17% |
| 2 | 381 | 13 | < 1 | < 0.4 | CCCOc1ccc(S(=O)(=O)N2C/C(=N\OC)C[C@@H]2C(=O)NO)cc1 |  |

Source: ChEMBL document CHEMBL1132553, “Design, synthesis, and biological evaluation of matrix metalloproteinase inhibitors derived from a modified proline scaffold” (J Med Chem, 1999)
